Experimental data taken from patent US10624905B2, “Corticosteroids for the treatment of joint pain” (Flexion Therapeutics, Inc., priority 2013, dated 2020).
Values after ≈ are worked out from the molar mass of the structure shown. Values joined by “and” are separate entries in the source; they are usually repeats but may differ in a detail not shown here. Equal values may be shown once. Read-outs that look alike come from different tables or passages of the source.

Key:
[1] = system: endogenous cortisol production; experiment: Steady-state doses and plasma concentrations for target suppression of endogenous cortisol production; design: species or system human; conditions: steady-state HPA axis suppression
Method: In this regard, it has been determined that standard doses of familiar corticosteroids, when examined from the viewpoint of steady-state HPA axis suppression (i.e., after desensitization has occurred), provide clinically useful benchmarks. For example, while oral prednisolone given at 20 mg QD produces a 73% cortisol suppression, even 5 mg QD (considered a “low dose”) is associated with a 40% suppression of endogenous cortisol production. […]
As a result of these clinical findings, the dose range to achieve clinically useful analgesia, with minimal or controlled modulation of the HPA axis, at steady state concentrations of various corticosteroids has been determined (Table 2). […]
In addition, with these continuous daily doses of intra-articular corticosteroids, it is possible to determine the related systemic plasma level concentrations (Table 3) that will produce the target cortisol inhibition and not beyond, this while retaining clinically important anti-inflammatory and analgesic activity within the joint. […] The levels calculated in Table 3 were purely hypothetical calculations based on human data with immediate release-level doses from the literature. […] A given level of plasma concentration may actually provide less inhibition that would have been predicted or calculated using the human IR levels from the literature. […]

[2] = cited from earlier work
[3] = system: HPA axis (corticosterone levels); experiment: Inhibition of the HPA axis (corticosterone levels) in rats, PK-PD analysis; type: in vivo; conditions: rat, PK-PD inhibitory model
[4] = system: rat model of osteoarthritis of the knee (PGPS); experiment: Rat PGPS model of osteoarthritis of the knee: histopathology of the knees; type: in vivo; conditions: inflammatory milieu
Method: Efficacy of single intra-articular (IA) doses of FX006 (TCA in 75:25 PLGA formulation microparticles) and TCA IR (immediate release) was evaluated in a rat model of osteoarthritis of the knee via sensitization and challenge by peptidoglycan polysaccharide (PGPS). The model involves priming the animals with an intra-articular injection of PGPS in the right knee. The following day, any animals with no knee discomfort were eliminated from the test article groups and placed into the baseline group. Two weeks later, knee inflammation was reactivated by a tail vein injection of PGPS, 2.5 hr following IA dosing with FX006 or TCA IR at the doses selected (n=10/group). Differences in weight-bearing and gait (as a measure of joint pain experienced by the animals), histopathology, plasma PK etc. were evaluated.

HPA axis = conditions: 20 mg intra-articular injection; day 3; transient; cited from earlier work
[5] = TCA in rat plasma, i.v. 50 mg/kg bolus + 23 mg/kg/h infusion, cited from earlier work

## C[C@]12C=CC(=O)C=C1CC[C@@H]1[C@@H]2[C@@H](O)C[C@@]2(C)[C@H]1CC[C@]2(O)C(=O)CO [prednisolone, 11β,17,21-trihydroxypregna-1,4-diene-3,20-dione]
[1]; oral 5 mg QD
  suppression of endogenous cortisol production: 40%
[1]; oral 20 mg QD
  cortisol suppression: 73%

## CC1(C)O[C@@H]2C[C@H]3[C@@H]4CCC5=CC(=O)C=C[C@]5(C)[C@@]4(F)[C@@H](O)C[C@]3(C)[C@]2(C(=O)CO)O1 [triamcinolone acetonide, 9α-Fluoro-11β,16α,17α,21-tetrahydroxy-1,4-pregnadiene-3,20-dione 16,17-acetonide]
[2]; 40 mg immediate release, intra-articular, by day 12
  contribution of the immediate release component to the plasma concentration: less than 0.1 ng/ml
[2]; 40 mg immediate release, intra-articular, day 1
  peak plasma concentration: approximately 10 ng/ml
[3]
  systemic TCA level at which Emax of corticosterone inhibition was achieved: 50 to 80 ng/mL
[3]; read-out: IC50 of corticosterone inhibition versus systemic TCA levels
  IC50: ~1 ng/mL (≈ 2.3 nM)
[4]
  effect on cartilage: no deleterious effect on cartilage

## CC(C)(C)CC(=O)OCC(=O)[C@@]12OC(C)(C)O[C@@H]1C[C@H]1[C@@H]3CCC4=CC(=O)C=C[C@]4(C)[C@@]3(F)[C@@H](O)C[C@@]12C [triamcinolone hexacetonide]
[2]; 20 mg intra-articular injection, day 3
  plasma levels: 3 to 4 ng/mL
HPA axis
  HPA-axis suppression: 75%

## Triamcinolone Acetonide Phosphate
[5]; Mean ± SD
  CL: 15.6 ± 3.13 mL/min/kg
  T1/2β: 2.71 ± 1.09 h
  Vc: 0.944 ± 0.314 L/kg
  fu: 0.093 ± 0.015
  k21: 0.937 ± 0.261 h^1
[5]; individual rats 1-3
  CL: 19.2 mL/min/kg and 13.2 mL/min/kg and 14.5 mL/min/kg
  T1/2β: 1.55 h and 3.71 h and 2.87 h
  Vc: 0.684 L/kg and 0.856 L/kg and 1.29 L/kg
  fu: 0.084 and 0.110 and 0.085
  k12: 1.64 h^1 and 1.79 h^1 and 1.59 h^1
  k21: 1.04 h^1 and 0.640 h^1 and 1.13 h^1
